Experimental findings from patent US6350745B1, “Thrombin inhibitors” (Merck & Co., Inc., priority 1999, dated 2002) are described below.

Usually Ki stands for a dissociation constant, usually derived from enzyme kinetics or from competition with a known ligand. Higher therefore signals a looser hold on the target.

This experiment addresses human α-thrombin (Homo sapiens, UniProt P00734). Kind of experiment: In vitro assay for determining proteinase inhibition (thrombin). Conditions: 25° C., 0.05 M TRIS buffer pH 7.4, 0.15 M NaCl, 0.1% PEG. Type of experiment: biochemical. On the procedure:
In vitro Assay for Determining Proteinase Inhibition
Assays of human α-thrombin and human trypsin were performed by the methods substantially as described in Thrombosis Research, Issue No. 70, page 173 (1993) by S. D. Lewis et al.
The assays were carried out at 25° C. in 0.05 M TRIS buffer pH 7.4, 0.15 M NaCl, 0.1% PEG. Trypsin assays also contained 1 mM CaCl2. In assays wherein rates of hydrolysis of a p-nitroanilide (pna) substrate were determined, a Thermomax 96-well plate reader was used was used to measure (at 405 nm) the time dependent appearance of p-nitroaniline. sar-PR-pna was used to assay human […]thrombin (Km=125 μM) and bovine trypsin (Km=125 μM). p-Nitroanilide substrate concentration was determined from measurements of absorbance at 342 nm using an extinction coefficient of 8270 cm^−1 M^−1.
In certain studies with potent inhibitors (Ki<10 nM) where the degree of inhibition of thrombin was high, a more sensitive activity assay was employed. […]
Activity assays were performed by diluting a stock solution of substrate at least tenfold to a final concentration ≦0.1 Km into a solution containing enzyme or enzyme equilibrated with inhibitor. Times required to achieve equilibration between enzyme and inhibitor were determined in control experiments. Initial velocities of product formation in the absence (Vo) or presence of inhibitor (Vi) were measured. […]

As for `Cc1cc2c(c(=O)n1CC(=O)NCc1ncccc1F)NC(=O)OC2(CC1CC1)CC1CC1` [compound 3-1], the Ki was under 100 nM.
